This is an account of results in patent publication US8299036B2, “Active agent combinations with insecticidal and acaricidal properties” (priority 2003, dated 2012).

Format in all cases: in vivo
The subject of one experiment is Aphis gossypii. As to the kind of experiment: Aphis gossypii test (cotton leaves, dip). The settings on record: Table A. As for the experimental part: To produce a suitable preparation of active compound, 1 part by weight of active compound is mixed with the stated amount of solvent and emulsifier, and the concentrate is diluted with emulsifier-containing water to the desired concentration.
Cotton leaves (Gossypium hirsutum) which are heavily infested by the cotton aphid (Aphis gossypii) are treated by being dipped into the preparation of active compound of the desired concentration.
(§1) After the desired period of time, the kill in % is determined. 100% means that all aphids have been killed; 0% means that none of the aphids have been killed. The kill rates determined are calculated using Colby's formula (see page 44).

For another experiment, the system named is Myzus persicae. Nature of the experiment: Myzus persicae test (cabbage leaves, dip). The settings on record: Table C. As for the experimental part:
(§2) To produce a suitable preparation of active compound, 1 part by weight of active compound is mixed with the stated amounts of solvent and emulsifier, and the concentrate is diluted with emulsifier-containing water to the desired concentration.
Cabbage leaves (Brassica oleracea) which are heavily infested by the green peach aphid (Myzus persicae) are treated by being dipped into the preparation of active compound of the desired concentration.
as §1

Experiment [1] has as its system Phaedon cochleariae larvae. Nature of the experiment: Phaedon cochleariae larvae test (cabbage leaves, dip). The protocol:
Phaedon cochleariae Larvae Test
as §2
Cabbage leaves (Brassica oleracea) are treated by being dipped into the preparation of active compound of the desired concentration and are populated with larvae of the mustard beetle (Phaedon cochleariae) while the leaves are still moist.
After the desired period of time, the kill in % is determined. 100% means that all beetle larvae have been killed; 0% means that none of the beetle larvae have been killed. The kill rates determined are calculated using Colby's formula (see page 44).

Experiment [2] concerns Tetranychus urticae (OP-resistant). As to the kind of experiment: Tetranychus urticae test (OP-resistant; dip application). The protocol: Tetranychus urticae Test (OP-Resistant; Dip Application)
as §2
Bush beans (Phaseolus vulgaris) which are heavily infested by the greenhouse red spider mite (Tetranychus urticae) are dipped into a preparation of active compound of the desired concentration.
After the desired period of time, the kill in % is determined. 100% means that all spider mites have been killed; 0% means that none of the spider mites have been killed. The kill rates determined are calculated using Colby's formula (see page 44).

In the next experiment the test system is Heliothis armigera. Nature of the experiment: Heliothis armigera test (cabbage leaves, dip). The settings on record: for Kill rate in % after 6 d, found: Table B 1; for Kill rate in % after 3 d, found: Table B 2. The protocol: as §2
Cabbage leaves (Brassica oleracea) are treated by being dipped into the preparation of active compound of the desired concentration and are populated with caterpillars of the cotton boll worm (Heliothis armigeia) while the leaves are still moist.
After the desired period of time, the kill in % is determined. 100% means that all caterpillars have been killed; 0% means that none of the caterpillars have been killed. The kill rates determined are calculated using Colby's formula (see page 44).

As to `CC(C)c1cc(Oc2ccccc2)cc(C(C)C)c1NC(=S)NC(C)(C)C` [(2-5) diafenthiuron, diafenthiuron, reference compound], in the experiment on Aphis gossypii (20 ppm), the “Kill rate in % after 1 d, found” value is recorded as 15%.
For the molecule `O=S1OCC2C(CO1)C1(Cl)C(Cl)=C(Cl)C2(Cl)C1(Cl)Cl` (stereo not shown) [(2-20) endosulfan, endosulfan, reference compound], the “Kill rate in % after 6 d, found” value in the experiment on Myzus persicae (20 ppm) is 15%.
With `Cc1cc(C)c(C2=C(OC(=O)CC(C)(C)C)C3(CCCC3)OC2=O)c(C)c1` [Example I-1], in experiment [1] (Table D 2, 100 ppm), the “Kill rate in % after 4 d, found” value is on record as 45%. Besides, the “Kill rate in % after 7 d, found” value in experiment [2] (Table E 2, 0.8 ppm) is 65%.
With `CCC(C)(C)C(=O)OC1=C(c2ccc(Cl)cc2Cl)C(=O)OC12CCCCC2` [Example I-2], in experiment [1] (Table D 1, 100 ppm), the “Kill rate in % after 4 d, found” value turned out to be 0%. Moreover, the “Kill rate in % after 7 d, found” value in experiment [2] (Table E 1, 0.8 ppm) was 0%.
Turning to `Cc1cc(Cl)cc(C(=O)NC(C)C)c1NC(=O)c1cc(C(F)(F)F)nn1-c1ncccc1Cl` [II-1-9], the “Kill rate in % after 6 d, found” value with Myzus persicae (4 ppm) is 25%; in the experiment with Heliothis armigera (0.0064 ppm) it was 30%. In addition, the “Kill rate in % after 1 d, found” value in the experiment on Aphis gossypii (4 ppm) is listed as 10%. The “Kill rate in % after 3 d, found” value with Heliothis armigera (0.0064 ppm) turned out to be 10%. The “Kill rate in % after 4 d, found” value in experiment [1] (Table D 1, 0.16 ppm) was 0%; in experiment [1] (Table D 2, 0.16 ppm) it was 5%. Also, the “Kill rate in % after 7 d, found” value in experiment [2] (Table E 1, 100 ppm) came to 0%; in experiment [2] (Table E 2, 100 ppm) it was 0%.
For the molecule “abamectin [(2-2) abamectin, reference compound]”, the “Kill rate in % after 6 d, found” value in the experiment on Heliothis armigera (0.16 ppm) is reported as 50%.
For “spinosad [(2-17) spinosad, reference compound]”, the “Kill rate in % after 3 d, found” value in the experiment with Heliothis armigera (0.032 ppm) was 0%.
